# What was measured:
# [1] = target: T1, Melanocyte-stimulating hormone receptor (Homo sapiens, UniProt Q01726); test: Effective concentration for intracellular cAMP accumulation in L-cells expressing Melanocortin 1 receptor; format: functional, cell-based
# [2] = target: T2, Melanocortin receptor 4 (Homo sapiens, UniProt P32245); test: Inhibitory concentration against human Melanocortin 4 receptor (hMC4R)
# [3] = target: T2, Melanocortin receptor 4; test: Effective concentration for intracellular cAMP accumulation in L-cells expressing Melanocortin 4 receptor; format: functional, cell-based
# [4] = target: T3, Melanocortin receptor 3 (Homo sapiens, UniProt P41968); test: Effective concentration that was able to generate 50% maximal intracellular cAMP in L-cells transfected with Melanocortin 3 receptor; format: functional, cell-based
# [5] = target: T1, Melanocyte-stimulating hormone receptor; test: Inhibitory concentration against human Melanocortin 1 receptor (hMC1R)
# [6] = target: T3, Melanocortin receptor 3; test: Inhibitory concentration against human Melanocortin 3 receptor (hMC3R)
# [7] = target: Melanocortin receptor 5 (Homo sapiens, UniProt P33032); test: Inhibitory concentration against human Melanocortin 5 receptor (hMC5R)
# Melanocortin receptor 5, sequence (P33032 whole entry): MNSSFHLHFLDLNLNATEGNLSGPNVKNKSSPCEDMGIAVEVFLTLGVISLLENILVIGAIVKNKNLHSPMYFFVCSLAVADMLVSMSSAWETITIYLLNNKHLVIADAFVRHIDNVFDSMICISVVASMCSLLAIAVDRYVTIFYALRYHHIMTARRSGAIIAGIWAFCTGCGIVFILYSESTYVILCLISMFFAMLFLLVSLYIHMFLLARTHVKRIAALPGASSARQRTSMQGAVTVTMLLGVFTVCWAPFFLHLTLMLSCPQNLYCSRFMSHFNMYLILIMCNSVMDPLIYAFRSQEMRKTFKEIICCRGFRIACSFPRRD
# T1 sequence (Q01726 whole entry): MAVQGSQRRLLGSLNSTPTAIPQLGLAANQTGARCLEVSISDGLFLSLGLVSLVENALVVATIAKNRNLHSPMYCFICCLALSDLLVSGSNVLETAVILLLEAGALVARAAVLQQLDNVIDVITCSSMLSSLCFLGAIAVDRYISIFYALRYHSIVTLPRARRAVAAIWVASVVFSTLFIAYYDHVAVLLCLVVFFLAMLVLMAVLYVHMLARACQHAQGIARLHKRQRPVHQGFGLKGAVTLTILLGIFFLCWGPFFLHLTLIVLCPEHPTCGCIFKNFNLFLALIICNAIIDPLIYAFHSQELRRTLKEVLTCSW
# T2 sequence (P32245 whole entry): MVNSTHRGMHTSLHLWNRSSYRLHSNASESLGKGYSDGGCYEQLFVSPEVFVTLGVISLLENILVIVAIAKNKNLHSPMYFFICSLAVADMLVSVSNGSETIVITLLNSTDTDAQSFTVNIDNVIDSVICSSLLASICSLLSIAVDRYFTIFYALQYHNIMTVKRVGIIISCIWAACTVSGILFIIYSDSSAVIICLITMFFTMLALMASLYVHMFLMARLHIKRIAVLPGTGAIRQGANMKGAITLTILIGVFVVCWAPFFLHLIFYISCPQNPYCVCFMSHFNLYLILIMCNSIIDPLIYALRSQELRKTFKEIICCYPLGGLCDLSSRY
# T3 sequence (P41968 whole entry): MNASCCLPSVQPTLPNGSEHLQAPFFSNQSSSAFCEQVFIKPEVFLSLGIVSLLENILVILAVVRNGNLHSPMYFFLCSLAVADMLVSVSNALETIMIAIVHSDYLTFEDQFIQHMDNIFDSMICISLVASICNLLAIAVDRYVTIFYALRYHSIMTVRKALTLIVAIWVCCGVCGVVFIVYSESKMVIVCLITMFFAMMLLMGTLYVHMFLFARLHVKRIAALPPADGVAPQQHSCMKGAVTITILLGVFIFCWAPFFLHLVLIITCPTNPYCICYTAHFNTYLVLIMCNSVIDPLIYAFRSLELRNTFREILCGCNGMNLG
Structure (SMILES),EC50 [1] [nM],IC50 [2] [nM],EC50 [3] [nM],EC50 [4] [nM],IC50 [5] [nM],IC50 [6] [nM],IC50 [7] [nM]
CC(=O)N[C@@H]1CC(=O)NCCCC[C@H](C(N)=O)NC(=O)[C@@H](C)NC(=O)[C@H](Cc2c[nH]c3ccccc23)NC(=O)[C@@H](CCCNC(=N)N)NC(=O)[C@H](Cc2ccccc2)NC(=O)[C@@H](Cc2cnc[nH]2)NC1=O,13.4,2.03,2.92,88.5,1.94,102,> 1000
CCCC[C@H](NC(C)=O)C(=O)N[C@@H]1CC(=O)NCCCC[C@@H](C(N)=O)NC(=O)[C@H](C)NC(=O)[C@@H](Cc2c[nH]c3ccccc23)NC(=O)[C@H](CCCNC(=N)N)NC(=O)[C@H](Cc2ccccc2)NC(=O)[C@H](Cc2cnc[nH]2)NC1=O,34.2,–,–,–,264,–,–
"CCCC[C@H](NC(C)=O)C(=O)N[C@H]1CC(=O)NCCCC[C@@H](C(N)=O)NC(=O)[C@H](C)NC(=O)C(Cc2c[nH]c3ccccc23)NC(=O)[C@H](CCCN=C(N)N)NC(=O)[C@@H](Cc2ccccc2)NC(=O)[C@H](Cc2c[nH]cn2)NC1=O (single isomer, unassigned)",0.098,–,–,–,0.35,–,–
"CCCC[C@H](NC(C)=O)C(=O)N[C@H]1CC(=O)NCCCC[C@@H](C(N)=O)NC(=O)[C@H](C)NC(=O)C(Cc2c[nH]c3ccccc23)NC(=O)[C@H](CCCN=C(N)N)NC(=O)C(Cc2ccccc2)NC(=O)[C@H](Cc2c[nH]cn2)NC1=O (single isomer, unassigned)",2.61,–,–,–,22.4,–,–
"CCCC[C@H](NC(C)=O)C(=O)N[C@H]1CC(=O)NCCCC[C@@H](C(N)=O)NC(=O)[C@H](C)NC(=O)C(Cc2c[nH]c3ccccc23)NC(=O)[C@H](CCCN=C(N)N)NC(=O)[C@H](Cc2ccccc2)NC(=O)[C@H](Cc2c[nH]cn2)NC1=O (single isomer, unassigned)",0.3,–,–,–,0.91,–,–
